From the supplement of paper PMC4862054
Several values for one entry are separate records, joined by “and”; a condition that tells them apart may be missing. Identical values can stand only once.

How the values were obtained:
Settings in all cases: incubation time: 72 h
HCC1937 [1] = assay: drug sensitivity score (DSS), CellTox Green (DSS (AUC-based score)); higher = stronger drug effect (viability inhibition or cytotoxicity); extreme values may be limits of the assay
How it was run: (§1)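 The area under the fitted dose-response curve was used to calculate the drug sensitivity score. Cells from breast cancer lines were incubated for 72 h in 384-well plates with compound at 5 concentrations spaced 10-fold over a 10,000-fold range specific to each compound. Plates were read for CellTox Green and then CellTiter-Glo, and normalised to 0.1 % DMSO and a positive kill control.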

BT-549 [2] = assay: as above
How it was run: as §1

CAL-148 = assay: as above
How it was run: as §1

MCF-10A = assay: as above
How it was run: as §1

MDA-MB-436 [3] = assay: as above
How it was run: as §1

HCC1599 = assay: as above
How it was run: as §1

CAL-51 [4] = assay: as above
How it was run: as §1

HCC1143 [5] = assay: as above
How it was run: as §1

DU-4475 = assay: as above
How it was run: as §1

CAL-85-1 = assay: as above
How it was run: as §1

HDQ-P1 = assay: as above
How it was run: as §1

MDA-MB-231 [6] = assay: as above
How it was run: as §1

BT-474 [7] = assay: as above
How it was run: as §1

MDA-MB-468 = assay: as above
How it was run: as §1

CAL-120 = assay: as above
How it was run: as §1

Hs578T = assay: as above
How it was run: as §1

MDA-MB-453 = assay: as above
How it was run: as §1

MFM-223 = assay: as above
How it was run: as §1

HCC1937 [8] = assay: drug sensitivity score (DSS), CellTiter-Blue viability (DSS (AUC-based score)); higher = stronger viability inhibition; extreme values may be limits of the assay
Description: (§2)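 DSRT with the CellTiter-Blue (resazurin reduction) viability readout, fluorescence 560/590 nm, 72 h incubation. Plates were normalised to DMSO and benzethonium chloride controls. DSS is computed from the area under the fitted dose-response curve (5 or 9 concentrations).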

BT-549 [9] = assay: as above
Description: as §2

MDA-MB-436 [10] = assay: as above
Description: as §2

CAL-51 [11] = assay: as above
Description: as §2

HCC1143 [12] = assay: as above
Description: as §2

MDA-MB-231 [13] = assay: as above
Description: as §2

BT-474 [14] = assay: as above
Description: as §2

| SMILES | drug sensitivity score (HCC1937 [1]) | drug sensitivity score (BT-549 [2]) | drug sensitivity score (CAL-148) | drug sensitivity score (MCF-10A) | drug sensitivity score (MDA-MB-436 [3]) | drug sensitivity score (HCC1599) | drug sensitivity score (CAL-51 [4]) | drug sensitivity score (HCC1143 [5]) | drug sensitivity score (DU-4475) | drug sensitivity score (CAL-85-1) | drug sensitivity score (HDQ-P1) | drug sensitivity score (MDA-MB-231 [6]) | drug sensitivity score (BT-474 [7]) | drug sensitivity score (MDA-MB-468) | drug sensitivity score (CAL-120) | drug sensitivity score (Hs578T) | drug sensitivity score (MDA-MB-453) | drug sensitivity score (MFM-223) | drug sensitivity score (HCC1937 [8]) | drug sensitivity score (BT-549 [9]) | drug sensitivity score (MDA-MB-436 [10]) | drug sensitivity score (CAL-51 [11]) | drug sensitivity score (HCC1143 [12]) | drug sensitivity score (MDA-MB-231 [13]) | drug sensitivity score (BT-474 [14]) |
| --- | --- | --- | --- | --- | --- | --- | --- | --- | --- | --- | --- | --- | --- | --- | --- | --- | --- | --- | --- | --- | --- | --- | --- | --- | --- |
| Nc1nccc(-c2c(-c3ccc(F)cc3)ncn2C2CCCCC2)n1 | 0 | 0 | 0 | 3.55 | 0 | 0 | 0 | 0 | 0 | 0 | 0 | 0 | 0 | 0 | 0 | 0 | 0 | 0 |  |  |  |  |  |  |  |
| C[C@@H]1CCN(C(=O)CC#N)C[C@@H]1N(C)c1ncnc2[nH]ccc12 [Tofacitinib] | 0 | 0 | 0 | 0 | 0 | 0 | 0 | 0 | 0 | 0 | 0 | 0 | 0 | 0 | 0 | 0 | 0 | 0 |  |  |  |  |  |  |  |
| CC(C)C[C@H](NC(=O)[C@H](Cc1ccccc1)NC(=O)c1cnccn1)B(O)O [Bortezomib] | 21.4 | 6.42 | 13.5 | 7.83 | 16.6 | 0 | 18.7 | 6.67 | 2.21 | 27.8 | 20.1 | 22.4 | 6.53 | 33.3 | 13.6 | 17.3 | 2.35 | 12.5 | 27.3 | 24.3 | 16.2 | 16.8 | 21.6 | 28.8 | 18.8 |
| Cn1c(=O)c(F)c(Nc2ccc(I)cc2F)c2c(=O)n(C[C@@H](O)CO)cnc21 [TAK-733] | 0 | 0 | 0 | 0 | 0 | 0 | 0 | 0 | 4.73 | 5.06 | 0 | 5.12 | 0 | 0 | 0.284 |  | 0 | 0 | 0 | 0 | 0 | 3.52 | 8.4 | 18.1 | 0 |
| Cc1cc(C(C)Nc2ccccc2)c2nc(N3CCOCC3)cc(=O)n2c1 (configuration not stated) [TGX-221] | 0 | 0 | 0 | 1.09 | 0 | 0 | 0 | 0 | 0 | 0 | 11.9 | 0.585 | 0 | 0 | 0 |  | 0 | 0 |  |  |  |  |  |  |  |
| CN(c1ccccc1CNc1nc(Nc2ccc3c(c2)CC(=O)N3)ncc1C(F)(F)F)S(C)(=O)=O | 0 | 0.974 | 0 | 9.63 | 0 | 1.23 | 17.6 | 5.18 | 0 | 3.86 | 9.69 | 8.46 | 0 | 0 | 0 | 10.4 | 0 | 0 |  |  |  |  |  |  |  |
| O=c1[nH]cc(F)c(=O)[nH]1 [Fluorouracil] | 0 | 0 | 0 | 0 | 0.291 | 0 | 0 | 0 | 0 | 0 | 0 | 0 | 0 |  | 0 | 0 | 0 | 0 | 0 | 2.25 | 1.93 | 1.79 | 0 | 1.96 | 0 |
| CS(=O)(=O)CCNCc1ccc(-c2ccc3ncnc(Nc4ccc(OCc5cccc(F)c5)c(Cl)c4)c3c2)o1 [Lapatinib] | 2.25 | 0 | 2.94 | 2.1 | 0 | 0 | 0 | 0 | 0 | 0 | 0 | 1.62 | 0 | 0 | 0 | 0 | 1.15 | 0 |  | 3.9 and 2.66 | 4.07 and 1.46 | 0 | 0 |  | 17.2 and 17.8 |
